Literature values as cited in patent US20030206884A1, “Embalming fluid” (AARD-BALM LIMITED, priority 2000, published 2003).

Tested on: eyes, nose and throat

## C=O [formaldehyde]
  airborne concentration causing irritation of the eyes, nose and throat: above 0.1 ppm
  airborne concentration that is a danger to life and health: 100 ppm
